± gives the expanded uncertainty stated by the source.
Tests used:
[1] = Solid-liquid equilibrium temperature; details: 101.33 kPa; Crystal; DTA
[2] = Molar enthalpy of transition or fusion; details: Crystal; DSC
[3] = molar heat capacity at constant pressure; details: 462.02 K; 101.33 kPa; Crystal; Large sample (1 g) DSC

Solid-liquid equilibrium temperature [1] | Molar enthalpy of transition or fusion [2] | molar heat capacity at constant pressure [3] | SMILES
387.52 ± 0.2 K | 6.17 ± 0.174 kcal/mol |  | CCOc1ccc2c(C)cc(=O)oc2c1 [7-ethoxy-4-methyl-2H-chromen-2-one]
462.02 ± 0.24 K | 7.51 ± 0.165 kcal/mol | 8.971 ± 0.18 J/K/mol | Cc1cc(=O)oc2cc(O)ccc12 [7-hydroxy-4-methyl-2H-chromen-2-one]
436.13 ± 0.22 K | 7.96 ± 0.172 kcal/mol |  | COc1ccc2oc(=O)cc(C)c2c1 [6-methoxy-4-methylcoumarin]

Reference: the NIST ThermoML archive (doi:10.1016/j.jct.2011.04.013)
